The values that follow come from EPA's ToxRefDB 2.

Data set [1] has as its system rat. As to conditions: Prenatal developmental toxicity study, sprague dawley, Oral, Gavage/Intubation, dose end: 15 GD.
Data set [2] deals with rat. As to conditions: Prenatal developmental toxicity study, sprague dawley, Oral, Gavage/Intubation, dose end: 19 GD.
Data set [3] deals with rat. The following applies: Multigenerational reproductive toxicity study, sprague dawley, Oral, Feed, dose end: 2 generation.
Data set [4] deals with rat. As to conditions: Prenatal developmental toxicity study, long evans, Oral, Gavage/Intubation, dose end: 15 GD.
Data set [5] relates to rat. The following applies: Prenatal developmental toxicity study, sprague dawley, Oral, Gavage/Intubation, dose end: 15 GD. The source holds these as a separate data set.
Data set [6] concerns rat. As to conditions: Prenatal developmental toxicity study, sprague dawley, Oral, Gavage/Intubation, dose end: 15 GD. This is another data set of the same source.
[7] abbreviates: group: developmental, developmental / developmental malformation / bone / ossification sites + developmental / developmental malformation / bone / unossified + ….
The mark [8] stands for this setting: group: maternal, systemic / in life observation / body weight / body weight gain + systemic / in life observation / clinical signs / labored respiration + ….
[9] abbreviates: group: developmental, developmental / developmental malformation / bone / unossified.
Setting [10] is: group: maternal, reproductive / reproductive performance / postimplantation loss / postimplantation loss + reproductive / reproductive performance / ….
[11] abbreviates: group: offspring, systemic / in life observation / body weight / offspring (pup) weight gain.
Where [12] appears, read: group: parental, systemic / in life observation / body weight / body weight + systemic / in life observation / body weight / body weight gain + systemic / in….
Setting [13] is: group: reproductive, reproductive / reproductive performance / fertility / fertility + reproductive / reproductive performance / mating / mating.
Setting [14] is: group: developmental, developmental / developmental malformation / placenta / size + systemic / in life observation / body weight / fetal weight.
[15] abbreviates: group: maternal, systemic / in life observation / body weight / body weight gain.
[16] abbreviates: group: developmental, developmental / developmental malformation / bone / incomplete ossification.
Setting [17] is: group: maternal, systemic / in life observation / body weight / body weight gain + systemic / in life observation / food consumption / food consumption + ….
[18] abbreviates: group: developmental, developmental / developmental malformation / bone / delayed ossification + systemic / in life observation / body weight / fetal weight.
[19] abbreviates: group: maternal, systemic / organ weight / liver / nos + reproductive / reproductive performance / resorptions / resorptions + systemic / in life observation….

Take `O=Cc1ccccc1C=O` [1,2-Benzenedicarboxaldehyde]: in the data set on rat [1] (setting [7]), the LEL worked out at 40 mg/kg/day; the LOAEL (as a rule, the lowest tested level that showed an adverse finding) came out at 40 mg/kg/day; the NEL stood at 20 mg/kg/day; the NOAEL (commonly the highest dose or exposure tested at which no adverse effect was seen) worked out at 20 mg/kg/day. Moreover, in the data set on rat [1] (setting [8]), the LEL amounted to 10 mg/kg/day, the LOAEL was determined as 10 mg/kg/day, the NEL was under 10 mg/kg/day and the no observed adverse effect level (NOAEL) is under 10 mg/kg/day.

As for `CC#N` [Acetonitrile], in the data set with rat [2] (setting [9]), the LEL was determined as 275 mg/kg/day, the LOAEL is over 275 mg/kg/day, the NEL is 190 mg/kg/day and the NOAEL is at least 275 mg/kg/day. For the same compound, in the data set with rat [2] (setting [10]), the LEL was 275 mg/kg/day, the LOAEL is over 275 mg/kg/day, the NEL was found to be 190 mg/kg/day and the NOAEL is at least 275 mg/kg/day.

As for `CC(C)(NC(=O)NCc1ccccc1Cl)c1ccccc1` [Cumyluron], in the data set with rat [3] (setting [11]), the LEL was 297 mg/kg/day, the lowest-observed-adverse-effect level (LOAEL) was determined as 297 mg/kg/day, the NEL worked out at 54 mg/kg/day and the NOAEL came to 54 mg/kg/day. Also, in the data set with rat [3] (setting [12]), the LEL was 297 mg/kg/day, the lowest-observed-adverse-effect level (LOAEL) was 297 mg/kg/day, the NEL is 54 mg/kg/day and the NOAEL was 54 mg/kg/day. Further, in the data set on rat [3] (setting [13]), the LEL was found to be 297 mg/kg/day, the lowest-observed-adverse-effect level (LOAEL) stood at 297 mg/kg/day, the NEL stood at 54 mg/kg/day and the NOAEL amounted to 54 mg/kg/day.

Turning to `NC1CCCCC1` [Cyclohexylamine], in the data set with rat [4] (setting [14]), the LEL is 100 mg/kg/day, the LOAEL was over 100 mg/kg/day, the NEL was 30 mg/kg/day and the NOAEL is at least 100 mg/kg/day. In the data set with rat [4] (setting [15]), this compound gave an LEL of 100 mg/kg/day, an LOAEL of over 100 mg/kg/day, an NEL of 30 mg/kg/day and an NOAEL of at least 100 mg/kg/day.

In the data set on rat [5] (setting [16]), `CCCCCCC(C)OC(=O)COc1nc(F)c(Cl)c(N)c1Cl` (configuration not stated) [Fluroxypyr-meptyl] returned an LEL of over 600 mg/kg/day, an LOAEL of over 600 mg/kg/day, an NEL of at least 600 mg/kg/day and an NOAEL of at least 600 mg/kg/day. In the data set on rat [5] (setting [17]), the LEL came to 600 mg/kg/day, the LOAEL is 600 mg/kg/day, the NEL was determined as 300 mg/kg/day and the NOAEL was found to be 300 mg/kg/day.

Turning to `CC1(C)OC(c2ccco2)CN1C(=O)C(Cl)Cl` (configuration not stated) [Furilazole], in the data set with rat [6] (setting [18]), the LEL was determined as 175 mg/kg/day, the LOAEL is over 175 mg/kg/day, the NEL is 75 mg/kg/day and the no observed adverse effect level (NOAEL) is at least 175 mg/kg/day. In addition, the LOAEL in the data set with rat [6] (group: maternal, systemic / organ weight / liver / nos) was found to be 75 mg/kg/day. Further, in the data set with rat [6] (group: maternal, systemic / organ weight / liver / nos + reproductive / reproductive performance / resorptions / resorptions), the LEL was found to be 75 mg/kg/day. Moreover, in the data set with rat [6] (setting [19]), the NEL turned out to be 10 mg/kg/day and the NOAEL came to 10 mg/kg/day.
